Measured values: patent US12714735B2, “Herbal composition for cancer” (priority 2024, dated 2026)
In brackets after ≈: the same amount, converted by molar mass. Several values for one entry are separate records, joined by “and”; a condition that tells them apart may be missing. Equal values may be shown once.

Assays:
[1] = Free radical scavenging activity (antioxidant assay); assay type: biochemical
Text: Evaluation of in-vitro cytotoxic potential of herbal products in human Lung cancer cell line (A549) by antioxidant assay: […] These substances may have potential as cytotoxic agents for further investigation. In an embodiment, free radical scavenging activity as per IC50 value: […]

MTT cytotoxicity assay = assay type: cell-based; conditions: human
Procedure: (§1) Human Lung carcinoma epithelial cell line, A549 cell line was obtained from the National Centre for Cell Sciences (NCCS, Pune). The cell line was cultured in DMEM (Himedia), supplemented with 10% fetal bovine serum (Sigma-Aldrich), 25 U/ml penicillin, and […] streptomycin (Himedia) at 37° ° C. in a water-saturated atmosphere of 95% air and 5% CO2. The experiments were repeated three times and average OD (absorbance values) were taken and plotted
8 test compounds (Wheatgrass, Ginger, Garlic, Tulsi, Green tea, Ashwagandha, 95% extract of Piperine and Turmeric) were obtained from the formulation department of Dabur Research Foundation, Sahibabad, Ghaziabad, U.P. 201010. 100 mg of the test compounds was weighed and dissolved in DMSO. After that, it was vortexed thoroughly followed by centrifugation. The clear supernatant was then used for further experimentation.
as §1, with “Cell culture Human” for “Human”, “37°” for “37° °”, “CO2.” for “CO2. The experiments were repeated three times and average OD (absorbance values) were taken and plotted”
The effect of DMSO extracts of 8 test compounds (Wheatgrass, Ginger, Garlic, Tulsi, Green tea, Ashwagandha, 95% extract of Piperine and Turmeric) on A549 human lung carcinoma epithelial cell line was observed by MTT (3-(4,5-dimethylthiazol-2-yl)-2,5-diphenyl tetrazolium bromide) assay. MTT reagent was purchased from Sigma (Darmstadt, Germany). Cells were counted on a hemocytometer and 10,000 cells/well were plated in 96 well plate in 180 μl of complete media (containing 10% of FBS).
Cells were treated with different concentrations (0.01, 0.1, 1, 10, 50, 100 μg/ml) of Wheatgrass, Ginger, Garlic, Tulsi, Green tea & Ashwagandha extracts and at concentrations (0.001, 0.01, 0.1, 1, 10 and 50 μg/ml) of 95% extract of Piperine and Turmeric for 72 hr. After the stipulated time, MTT solution (5 mg/ml) was added to each well and incubated for 3 hr. The purple-colored precipitate of formazan was dissolved in 150 μl of DMSO (Sigma-Aldrich) by proper mixing. The color absorbance of each well was recorded at 570 nm in a Bioteck microplate reader with a reference serving as blank. Then, IC50 values of DMSO extracts of 8 test compounds were calculated.
Statistical analysis MTT Data were analyzed by using Microsoft office Excel Software.

IC 50 value (free radical scavenging) [1] [µg/mL] | SMILES | % Inhibition ([1]; 1 μg/ml) [%] | % Inhibition ([1]; 10 μg/ml) | % Inhibition ([1]; 20 μg/ml) | % Inhibition ([1]; 30 μg/ml) | % Inhibition ([1]; 40 μg/ml) | % Inhibition ([1]; 50 μg/ml) | % Inhibition ([1]; 100 μg/ml) | IC50 at 72 h (MTT cytotoxicity assay) [µM] | cytotoxicity at 72 h, 0.1 µM (MTT cytotoxicity assay) [%] | cytotoxicity at 72 h, 1 µM (MTT cytotoxicity assay) [%] | cytotoxicity at 72 h, 10 µM (MTT cytotoxicity assay) [%] | cytotoxicity at 72 h, 25 µM (MTT cytotoxicity assay) [%] | cytotoxicity at 72 h, 50 µM (MTT cytotoxicity assay) [%]
37.54 (≈ 213 µM) | O=C1O[C@H]([C@@H](O)CO)C(O)=C1O [Ascorbic Acid] | 2.3 | 13% and 13.2% | 24% and 24.4% | 38% and 37.6% | 51% and 50.8% | 63% and 62.6% | 90% and 90.4% | – | – | – | – | – | –
– | COc1cccc2c1C(=O)c1c(O)c3c(c(O)c1C2=O)C[C@@](O)(C(=O)CO)C[C@@H]3O[C@H]1C[C@H](N)[C@H](O)[C@H](C)O1 [Doxorubicin] | – | – | – | – | – | – | – | 9.39 | 11.7 | 19.3 | 51 | 66.2 | 69.2
